Experimental data reported in patent US20250195542A1, “METABOLIC DISEASE THERAPEUTIC AGENT OR PREVENTIVE AGENT” (Peking University, priority 2022, published 2025).
Positions count from the first letter of the chain named.

How the values were obtained:
NASH in MCD model mice [1] = assay: H&E liver histology in MCD mice, Example 12; assay type: in vivo, C57BL/6J mice; settings: oral 4 weeks, 10 and 20 mg/kg, better than obeticholic acid 10 mg/kg, FIG. 17A
Method: (§1) Four-week-old male C57BL/6J mice were purchased from the Experimental Animal Center, Peking University Health Science Center. The mice were randomly divided into groups, with 10 mice per group. Methionine choline-deficient diet (MCD) was used to induce NASH, forming the MCD model mice. The model mice were treated with an oral administration of drugs for 4 weeks. After the final treatment, the mice were fasted overnight, and then sacrificed. Serum and liver tissue samples were stored at −80° C., which could be compared with untreated MCD mice (“MCD”) and normal mice (“Nor” or “Normal”). The dosing amounts for each group were as follows: low-dose 25S-Antcin C (“ACS-L”): 10 mg/kg; high-dose 25S-Antcin C (“ACS-H”): 20 mg/kg; obeticholic acid (“OCA”): 10 mg/kg.
After the final treatment, the mice were sacrificed, and the liver tissue samples were fixed overnight in 4% paraformaldehyde, embedded in paraffin, and sectioned. […]

RDH10 [2] = target: T1, RDH10 (Mus musculus, UniProt Q8VCH7); assay: Cellular thermal shift assay (CETSA / ITDRFCETSA); assay type: binding
T1 construct: Take approximately 50 mg of liver tissue from C57BL/6J mice and add 1 mL of RIPA lysis buffer; from tissue; host or cells: mouse liver (C57BL/6J) lysate
T1 sequence (Q8VCH7 1-341): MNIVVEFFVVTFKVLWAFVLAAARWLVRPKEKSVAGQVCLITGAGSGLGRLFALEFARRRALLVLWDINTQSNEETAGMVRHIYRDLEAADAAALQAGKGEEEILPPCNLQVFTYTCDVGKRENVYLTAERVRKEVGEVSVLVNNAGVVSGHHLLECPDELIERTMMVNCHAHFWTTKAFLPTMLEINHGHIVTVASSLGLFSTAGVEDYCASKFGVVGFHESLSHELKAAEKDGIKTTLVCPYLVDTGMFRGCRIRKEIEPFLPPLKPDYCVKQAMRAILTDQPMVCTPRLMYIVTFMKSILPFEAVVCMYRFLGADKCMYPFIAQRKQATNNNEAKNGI
Method: • 1. Mouse liver total protein (500 μg/mL) was incubated at room temperature for 2 hours with either 25S-Antcin C (100 μM) or an equal volume of DMSO. • 2. After incubation, the 25S-Antcin C-treated group and the DMSO control group were aliquoted into 13 PCR tubes, with 30 μL per tube, and placed on ice. • 3. In a PCR machine, a gradient heating program for CETSA was set up with 12 temperature points (37, 41, 45, 49, 53, 57, 61, 65, 69, 73, 77, 81° C.). The 13 samples from the 25S-Antcin C-treated group and the DMSO control group were heated at each temperature point for 3 minutes, then immediately taken out and incubated at room temperature for 3 minutes, followed by rapid cooling on ice. • 4. The samples were transferred to 1.5 mL EP tubes and centrifuged at 15,000 rpm for 40 minutes at 4° C. • 5. The supernatant was transferred to new EP tubes, mixed with 5×SDS-PAGE loading buffer, and boiled for 5 minutes to denature the proteins. Western Blot was then performed.

[3] = tested on: mouse primary liver cells; assay: Oleic acid-palmitic acid induced lipid deposition with RDH10 siRNA knockdown, mouse primary liver cells (Oil Red O); assay type: cell-based; settings: 20 μM
NASH in MCD model mice [4] = assay: Serum ALT and AST in MCD mice, Example 12; assay type: in vivo, C57BL/6J mice; settings: oral 4 weeks, 10 and 20 mg/kg, better than obeticholic acid 10 mg/kg, FIG. 17B
Method: as §1
After the final treatment and overnight fasting, mice were anesthetized, and blood was collected from the tail vein. Whole blood was allowed to stand for 2 hours, centrifuged at 6000 rpm for 10 minutes, and the supernatant was used to measure serum alanine aminotransferase (ALT) and aspartate aminotransferase (AST) levels using ALT assay kit and AST assay kit (Bote Biotech, Beijing).

L02 human liver cells = assay: Oleic acid-palmitic acid induced lipid deposition with RDH10 siRNA knockdown, L02 cells (Oil Red O); assay type: cell-based; settings: 20 μM
RDH10 [5] = target: T1, RDH10; assay: Protein fishing (pull-down) with molecular probe and proteomics analysis; assay type: binding, C57BL/6J mice; settings: 400 μM ACS against 40 μM ACS-biotin
Method: • 1. Preparation of Liver Protein: Take approximately 50 mg of liver tissue from C57BL/6J mice and add 1 mL of RIPA lysis buffer. Lyse the proteins on ice, then centrifuge at 12,000 rpm for 30 minutes at 4° C. Collect the supernatant, measure the protein concentration using BCA method, and dilute to 1 mg/mL with PBS. • 2. Sample Preparation: Prepare new 1.5 mL EP tubes and divide them into control group, drug group, and competitive inhibition group. Add 100 μL of PBS solution containing 40 μM Biotin to the control group, 100 μL of PBS solution containing 40 μM ACS-biotin (prepared in Example 1) to the drug group, and 100 μL of PBS solution containing 40 μM ACS-biotin and 400 μM ACS to the competitive inhibition group. Then, add 100 μL of liver protein lysate (1 mg/mL) to each tube and incubate on a shaking incubator at 4° C. for 2 hours. • 3. Washing Streptavidin Beads: Add 100 μL of streptavidin beads to new 1.5 mL EP tubes and centrifuge at 2,700 rpm for 1 minute. Discard the supernatant and wash the beads with 100 μL of PBS three times. • 4. Binding and Washing: Add the solutions from step 2 to the washed streptavidin beads. Incubate on a shaking incubator at 4° C. for 2 hours, then centrifuge at 2,700 rpm for 1 minute. Discard the supernatant and wash the beads with 100 μL of PBS three times. • 5. Protein Elution: Add 50 μL of PBS to the beads, mix well, and then add 5×SDS-PAGE sample buffer. Boil for 5 minutes and centrifuge at 13,000 rpm for 5 minutes. Store the supernatant at −20° C. for SDS-PAGE gel electrophoresis. • 6. Protein Detection: Stain with Coomassie Brilliant Blue and cut the gel for proteomics analysis.

RDH10 protein = target: T2, RDH10 protein (Homo sapiens, UniProt Q8IZV5); assay: Surface plasmon resonance (SPR), Biacore T200; assay type: binding; settings: RDH10 immobilized on CM5 chip; 25S-Antcin C 0.78-25 μM; FIG. 15B
T2 sequence (Q8IZV5 1-341): T1 sequence (Q8VCH7 1-341) with K99N, P107H, R278K, V287I
Method: Using a Biacore T200 plasmon surface resonance instrument, RDH10 protein was immobilized on a CM5 sensor chip via an amine coupling reaction. The pH of the RDH10 protein was 4.5, and the final immobilization concentration was 50 μg/mL. The running buffer consisted of 50 mM Tris-Hcl buffer containing […] NaCl, 2 mM MgCl2, 0.05% Tween-20, and 5% DMSO. In the binding experiment, different concentrations of 25S-Antcin C (25, 12.5, 6.25, 3.12, 1.56, 0.78 μM) were dissolved in the running buffer. The flow rate was 30 μL/min, with a contact time of 60 seconds and a dissociation time of 60 seconds. Data were analyzed using Biacore software, and the kinetic analysis calculated the affinity constant (KD value).

[6] = cited from earlier work
[7] = oleic acid-palmitic acid, 24 hours, FIG. 16B

SMILES	liver steatosis and ballooning (NASH in MCD model mice [1])	RDH10 protein that did not precipitate (RDH10 [2]; 100 μM, among 53-69 °C)	stability of RDH10 protein at 61° C. (ITDRFCETSA) (RDH10 [2]; constant 61 °C, 0.01-1000 μM, FIG. 15D)	CETSA curve of RDH10 (RDH10 [2]; mouse liver total protein, 100 μM, 37-81 °C, compared to DMSO group, FIG. 15C)	effect on reducing lipid deposition in the RDH10 siRNA group ([3]; RDH10 knockdown)	lipid droplets, Control siRNA group [3, 7]	serum ALT levels (NASH in MCD model mice [4])	serum AST levels (NASH in MCD model mice [4])	effect on reducing lipid deposition in the RDH10 siRNA group (L02 human liver cells; RDH10 knockdown)	lipid droplets, Control siRNA group (L02 human liver cells; [7])	competitive inhibition of probe binding to RDH10 protein (RDH10 [5])	Kd (RDH10 protein) [µM]	serious side effects in clinical trials [6]
C=C(CC[C@@H](C)[C@H]1CC[C@H]2C3=C(C(=O)C[C@]12C)[C@@]1(C)CCC(=O)[C@@H](C)[C@@H]1C[C@@H]3O)[C@H](C)C(=O)O [25S-Antcin C]	significantly reduced	significant increase	increased with higher concentrations of 25S-Antcin C, stabilizing after 100 μM	shift in the CETSA curve	almost completely lost	significantly reduced in size	significantly reduced	significantly reduced	almost completely lost	significantly reduced in size	reduces the binding of the molecular probe to the RDH10 protein	8.31	–
CC[C@H]1[C@@H](O)[C@@H]2[C@H](CC[C@]3(C)[C@@H]([C@H](C)CCC(=O)O)CC[C@@H]23)[C@@]2(C)CC[C@@H](O)C[C@@H]12 [obeticholic acid]	–	–	–	–	–	–	–	–	–	–	–	–	severe pruritus
